Where “and” joins values, the source holds several entries; their conditions need not be identical. Equal entries are not always repeated.
How the values were obtained:
Caco-2 cells = test: Permeability test on Caco2 cells; assay type: in vitro ADME
Description: After resuscitation, the Caco-2 cells are transferred to a conventional culture dish and cultured in a high-glucose DMEM medium (containing 10% FBS) at 37° C. and 5% CO2 in an incubator. When the cells cover 80% to 95% of the bottom of the dish, they are digested with trypsin containing 0.25% EDTA to disperse them into a single cell suspension, and the cell concentration is determined using a cell counter, after that, the concentration of the cell suspension is adjusted to 2 to 2.5×10^5/mL with fresh culture medium and inoculated into a Transwell polycarbonate membrane 12-well plate, the fresh culture medium is replaced every two days in the first two weeks and once a day in the last week, the culture is continued for 19 to 21 days to obtain a fully differentiated single cell layer.

[1] = tested on: recombinant TEAD1 protein (194-411, Uniprot ID: P28347); test: Thermal shift assay (protein melting point curve), TEAD1; assay type: binding; set-up: key to the marks not given beside the values; settings: 10 μM TEAD protein, 50 μM test compound
Description: (§1) The ability of the compounds to increase the melting point of purified recombinant TEAD1/2/3/4 proteins is tested using a thermal shift assay. The strength of the compound's binding to the protein and the selectivity of the compound's binding to the four TEAD subtypes are evaluated by calculating the melting point shift ΔTm−° C. […] Based on the Δ Tm value, the ability of the compound to bind to the TEAD protein is divided into four levels: ++++, +++, ++, +.
(§2) Test method of protein melting point curve: 10 μL of the protein melting point curve experimental system (10 μM TEAD protein, 50 μM test compound, SYPRO® orange (55692, sigma)) is prepared in a 384-well fluorescence quantitative PCR plate according to the following system, and reacted at 4° C. in the dark for 20 minutes. On-machine reaction: ABI QuantStudio Dx fluorescence quantitative PCR instrument; program: from 25° C. to 80° C., increasing the temperature at a rate of 0.05° C./s, and reading the fluorescence channel signal of the corresponding wavelength of SYPRO® orange every second.

[2] = target: recombinant TEAD2 protein (218-447, Uniprot ID: Q15562) (Homo sapiens (Human), UniProt Q15562); test: Thermal shift assay (protein melting point curve), TEAD2; assay type: binding; settings: 10 μM TEAD protein, 50 μM test compound
Description: as §1, §2

[3] = target: recombinant TEAD3 protein (218-435, Uniprot ID: Q99594) (Homo sapiens (Human), UniProt Q99594); test: Thermal shift assay (protein melting point curve), TEAD3; assay type: binding; settings: 10 μM TEAD protein, 50 μM test compound
Description: as §1, §2

[4] = target: recombinant TEAD4 protein (217-434, Uniprot ID: Q15561) (Homo sapiens (Human), UniProt Q15561); test: Thermal shift assay (protein melting point curve), TEAD4; assay type: binding; settings: 10 μM TEAD protein, 50 μM test compound
Description: as §1, §2

[5] = In vitro liver microsome stability, mouse; assay type: in vitro ADME; settings: for mouse half-life: mouse liver microsomes
Description: (§3) Testosterone is selected as the positive reference compound. The specific method is as follows:
(§4) Preparing 0.1MK3 PO4 (pH 7.4) buffer and 3×NADPH stock solution (6 mM, 5 mg/mL), and preheating in a 37° C. water bath; preparing spiking solution of tested compound and control compound: adding 5 μL compound stock solution (10 mM) to 95 μL acetonitrile; preparing 1.5 μM spiking solution in microsomes (0.75 mg/mL): add 1.5 μL spiking solution and 18.75 μL liver microsome solution (20 mg/mL) to 479.75 μL K3PO4 buffer; taking 30 μL spiking solution in microsomes and adding it to the multiwell plate, and incubating at 37° C. for 5 min; adding 15 μL of NADPH stock solution to each well, starting to react, and timing; adding 150 μL of acetonitrile solution containing IS at 0 min, 5 min, 15 min, 30 min, 45 min and 60 min respectively to terminate the reaction; after 10 min of oscillation, centrifuging the reaction at 6000 rpm for 15 min; taking 80 μL of supernatant from each well for LC/MS detection and calculating Ti/2.
(§5) Liver microsomes of mice, rats, dogs, and human used in the experiment are purchased from Xenotech.

[6] = In vitro liver microsome stability, human; assay type: in vitro ADME; settings: for human half-life: human liver microsomes
Description: as §3, §4, §5

[7] = target: recombinant TEAD1 protein central pocket (Homo sapiens (Human), UniProt P28347); test: Competitive thiol binding assay (CPM assay), TEAD1; settings: 150 nM recombinant TEAD protein, 150 nM CPM
Description: (§6) Diluting the tested compound in gradient to 5 uL with buffer (25 mM HEPES, 150 mM NaCl, pH6.5), then adding 5 μL of the newly prepared 0.45 uM recombinant TEAD protein solution, and incubating at room temperature for 10 minutes. […] After shaking the plate at room temperature for 1 hour, measuring the fluorescence intensity (Ex/Em: 380/470 nm).

[8] = target: recombinant TEAD4 protein central pocket (Homo sapiens (Human), UniProt Q15561); test: Competitive thiol binding assay (CPM assay), TEAD4; settings: 150 nM recombinant TEAD protein, 150 nM CPM
Description: as §6

TEAD family proteins = test: Thermal shift assay, summary over all TEAD subtypes; assay type: binding; settings: summary of Table 1
Description: as §1, §2

Sequence of recombinant TEAD1 protein central pocket (P28347 whole entry): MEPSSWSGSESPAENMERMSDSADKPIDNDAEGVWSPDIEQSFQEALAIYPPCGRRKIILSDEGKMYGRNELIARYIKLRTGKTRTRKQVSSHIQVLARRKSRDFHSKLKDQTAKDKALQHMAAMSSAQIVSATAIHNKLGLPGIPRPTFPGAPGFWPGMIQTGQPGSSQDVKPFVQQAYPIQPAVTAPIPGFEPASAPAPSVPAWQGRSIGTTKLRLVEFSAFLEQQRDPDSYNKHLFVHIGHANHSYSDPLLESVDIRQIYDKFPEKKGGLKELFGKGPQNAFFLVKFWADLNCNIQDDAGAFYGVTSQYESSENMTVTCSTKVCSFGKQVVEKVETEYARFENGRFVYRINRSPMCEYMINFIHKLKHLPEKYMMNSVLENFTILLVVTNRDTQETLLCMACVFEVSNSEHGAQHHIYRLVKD
Sequence of recombinant TEAD3 protein (218-435, Uniprot ID: Q99594) (Q99594 218-435): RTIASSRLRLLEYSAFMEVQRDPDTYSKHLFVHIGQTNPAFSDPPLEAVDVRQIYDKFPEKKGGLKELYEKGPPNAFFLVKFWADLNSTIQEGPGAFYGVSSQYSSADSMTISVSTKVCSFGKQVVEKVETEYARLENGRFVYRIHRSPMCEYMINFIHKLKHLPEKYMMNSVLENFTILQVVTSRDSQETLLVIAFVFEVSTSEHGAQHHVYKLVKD
Sequence of recombinant TEAD4 protein central pocket (Q15561 whole entry): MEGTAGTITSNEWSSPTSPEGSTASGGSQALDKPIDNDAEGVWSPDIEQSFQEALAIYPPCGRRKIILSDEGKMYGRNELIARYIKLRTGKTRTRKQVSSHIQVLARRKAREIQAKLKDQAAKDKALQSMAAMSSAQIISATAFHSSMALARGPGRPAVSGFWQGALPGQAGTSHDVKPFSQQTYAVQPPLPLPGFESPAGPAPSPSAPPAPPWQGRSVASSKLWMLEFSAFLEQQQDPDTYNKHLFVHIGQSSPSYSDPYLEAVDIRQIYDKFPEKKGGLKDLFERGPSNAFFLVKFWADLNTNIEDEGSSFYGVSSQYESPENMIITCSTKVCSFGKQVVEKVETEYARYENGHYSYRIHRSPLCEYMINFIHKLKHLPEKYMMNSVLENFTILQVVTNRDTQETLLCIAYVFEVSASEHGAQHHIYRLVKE
Sequence of recombinant TEAD2 protein (218-447, Uniprot ID: Q15562) (Q15562 218-447): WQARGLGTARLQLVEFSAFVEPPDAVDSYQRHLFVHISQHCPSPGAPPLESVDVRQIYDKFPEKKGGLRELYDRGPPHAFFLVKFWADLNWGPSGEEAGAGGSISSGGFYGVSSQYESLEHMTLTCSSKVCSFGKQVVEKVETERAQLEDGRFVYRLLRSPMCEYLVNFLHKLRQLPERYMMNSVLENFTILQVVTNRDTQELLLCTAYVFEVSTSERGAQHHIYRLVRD
Sequence of recombinant TEAD4 protein (217-434, Uniprot ID: Q15561) (Q15561 217-434): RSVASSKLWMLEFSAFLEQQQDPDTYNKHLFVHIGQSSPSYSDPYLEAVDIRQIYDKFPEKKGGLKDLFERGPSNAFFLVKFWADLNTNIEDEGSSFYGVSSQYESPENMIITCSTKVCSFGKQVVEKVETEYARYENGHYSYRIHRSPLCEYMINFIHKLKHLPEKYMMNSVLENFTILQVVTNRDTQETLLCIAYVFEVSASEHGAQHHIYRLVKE

Δ T m (TEAD2) [2] | Δ T m (TEAD3) [3] | Δ T m (TEAD4) [4] | IC50 [7] | SMILES | Δ T m (TEAD1) [1] | other results
 |  |  |  | CNC(=C[N+](=O)[O-])NCCSCc1ccc(CN(C)C)o1 [ranitidine] |  | Papp average value (Caco-2 cells; AP→BL, n = 2): 1.84 10^−6 cm/s; Papp (Caco-2 cells; AP→BL, single replicate): 1.99 10^−6 cm/s and 1.69 10^−6 cm/s; Receiving chamber concentration Area ratio/OD (Caco-2 cells; AP→BL, single replicate): 3.32 and 2.82; Penetration Type (Caco-2 cells; Caco2 cell model): Medium
++ | + | +++ |  | CP(C)(=O)c1ccc(Nc2ccc(C(F)(F)F)cc2)c(-c2nccc(N3CC[C@H](O)C3)n2)c1 [Compound 9] | +++ | mouse half-life [5]: 1.43 h; human half-life [6]: 0.488 h
+ | + | ++ | 690 nM | CP(C)(=O)c1ccc(NC2CCC(F)(F)CC2)c(-c2nccc(OC3COC3)n2)c1 [Compound 30] | +++ | IC50 [8]: 810 nM
+++ | ++ | +++ |  | Cn1cnc(-c2cc(P3(=O)CCNCC3)ccc2Nc2ccc(C(F)(F)F)cc2)c1 [Compound 1] | +++ | metabolic stability ([5]; mouse liver microsome environment): good metabolic stabilities; mouse half-life [5]: 1.56 h; metabolic stability ([6]; human liver microsome environment): good metabolic stabilities; human half-life [6]: 5.98 h
+ | + | ++++ | 190 nM | CP(C)(=O)c1ccc(Nc2ccc(S(F)(F)(F)(F)F)cc2)c(-c2nccc(OC3COC3)n2)c1 [Compound 74] | ++++ | IC50 [8]: 210 nM
++ | ++ | ++++ | 170 nM | CP(C)(=O)c1ccc(Nc2ccc(C(F)(F)F)cc2)c(-c2nc(OC3COC3)cs2)c1 [Compound 7] | ++++ | binding ability to each subtype of TEAD family proteins (TEAD family proteins): good binding abilities; IC50 [8]: 250 nM
++ | ++ | +++ |  | CP(C)(=O)c1ccc(Nc2ccc(C(F)(F)F)cc2)c(-c2cnn(C3COC3)c2)c1 [Compound 15] | +++ | 
++ | ++ | ++ |  | CP(C)(=O)c1ccc(NCC2CCC(C(F)(F)F)CC2)c(-c2ncccn2)c1 (centres unmarked) [Compound 46] | +++ | 
+ | + | + |  | CP(C)(=O)c1ccc(NCc2cc(F)cc(F)c2)c(-c2nccc(OC3COC3)n2)c1 [Compound 62] | ++ | 
+++ | + | +++ |  | Cn1cnc(-c2cc(P(C)(C)=O)ccc2NC2CCC(C(F)(F)F)CC2)c1 (centres unmarked) [Compound 63] | ++++ | 
+ | + | ++ |  | CP(C)(=O)c1ccc(Nc2ccc(C(F)(F)F)cc2)c(-c2csc(OC3COC3)n2)c1 [Compound 71] | ++ | 
+ | + | ++++ | 140 nM | CCP(=O)(CC)c1ccc(Nc2ccc(C(F)(F)F)cc2)c(-c2nccc(OC3COC3)n2)c1 [Compound 66] | ++++ | 
+ | + | +++ |  | CP(C)(=O)c1ccc(Nc2ccc(C(F)(F)F)cc2)c(-c2nccc(OC3COC3)c2C#N)c1 [Compound 36] | ++ | 
++ | ++ | ++ |  | CP(C)(=O)c1ccc(NCc2ccc(C(F)(F)F)cc2)c(-c2cnn(C3COC3)c2)c1 [Compound 50] | ++ | 
++ | + | ++ |  | CP(C)(=O)c1ccc(Nc2ccc(C(F)(F)F)cc2)c(-c2nccc(OC(F)F)n2)c1 [Compound 65] | +++ | 
+ | + | + |  | CC1OCCC1S(=O)(=O)c1csc(-c2cc(P(C)(C)=O)ccc2Nc2ccc(C(F)(F)F)cc2)n1 (centres unmarked) [Compound 23] | ++ | 
+ | + | +++ | 160 nM | CP(C)(=O)c1ccc(Nc2ccc(C(F)(F)F)cc2)c(-c2nccc(OC3CCOC3)n2)c1 (centres unmarked) [Compound 18] | ++++ | IC50 [8]: 210 nM
++ | ++ | ++ |  | CP(C)(=O)c1ccc(Nc2ccc(C(F)(F)F)cc2)c(-c2cnn(C3CCOCC3)c2)c1 [Compound 51] | ++ | 
++ | + | + |  | CP(C)(=O)c1ccc(NC2CCc3cc(C(F)(F)F)ccc32)c(-c2ncccn2)c1 (centres unmarked) [Compound 42] | ++ | 

SMILES | Δ T m (TEAD2) [2] | Δ T m (TEAD3) [3] | Δ T m (TEAD4) [4] | IC50 [7] | Δ T m (TEAD1) [1] | other results
CP(C)(=O)c1cc(-c2nccc(OC3COC3)n2)c(Nc2ccc(C(F)(F)F)cc2)s1 [Compound 24] | ++ | + | ++++ | 180 nM | ++++ | IC50 [8]: 290 nM

Reference: US20260055126A1, “SMALL MOLECULE COMPOUNDS WITH PHOSPHORYLATED ARYL STRUCTURES AND USE THEREOF” (HANGZHOU PHECDAMED CO., LTD., priority 2022, published 2026)
